Measurements reported in patent US20220145303A1, “FRAGILE X MENTAL RETARDATION PROTEIN INTERFERING OLIGONUCLEOTIDES AND METHODS OF USING SAME” (Nogra Pharma Limited, priority 2019, published 2022).

Assays:
DLD-1 cells = test: Cell death by AnnexinV/PI flow cytometry in DLD-1 cells; assay type: cell-based, human; conditions: 24 hours, AS 0.5 nM and 100 nM, FIGS. 3E, 3F
Protocol: (§1) Cells were transfected with either FMRP antisense oligonucleotide (AS)(final concentration 0.5 nM and 100 nM) or FMRP sense oligonucleotide (S)(final concentration 100 nM). After 24 hours (FIGS. 3E, 3F, 3J and 3K) or 48 hours (FIG. 3H), cells were collected, washed two times in Annexin V (AV) buffer, stained with FITC-AnnexinV (final dilution 1:100; Immunotools, Friesoythe, Germany) according to the manufacturer's instructions, and incubated with […] of propidium iodide (PI) for 30 min at 4° C. Cells were also transfected with either FMRP sense oligonucleotide or FMRP AS oligonucleotide (final concentration 100 nM) for 36 hours and analyzed for activated caspase 3 and caspase 8. As positive and negative controls, cells were treated, respectively, with staurosporin (final concentration 1 μM, Sigma-Aldrich Milan, Italy) or Q-VD-OPh (a pan-caspase inhibitor; final concentration 1 μM) (R&D Systems, Inc, Minneapolis, Minn.). Additionally, 36 hours (FIGS. 4F and 4G) or 48 hours post-transfection (FIGS. 4D and 4E), cells were pulsed with […] bromodeoxyuridine for 60 minutes, fixed in 70% cold ethanol, and stored at −20° C. for at least 3 hours. […] Fluorescence was measured using Gallios Flow Cytometer (Beckman Coulter, Life Sciences, Pasadena, Calif., USA) and analyzed using Kaluza software (Beckman Coulter). […]

HCEC-1ct cells = test: Cell death by AnnexinV/PI flow cytometry in HCEC-1ct cells; assay type: cell-based, human; conditions: 24 hours, AS 0.5 nM and 100 nM, FIGS. 3J, 3K
Protocol: as §1

caspase 3 = test: Activated caspase 3 by flow cytometry in CRC cells; assay type: cell-based, human; conditions: oligonucleotide 100 nM 36 hours, staurosporin 1 μM, FIGS. 4A, 4B
Protocol: Immunotools, Friesoythe, Germany) according to the manufacturer's instructions, and incubated with […] of propidium iodide (PI) for 30 min at 4° C. Cells were also transfected with either FMRP sense oligonucleotide or FMRP AS oligonucleotide (final concentration 100 nM) for 36 hours and analyzed for activated caspase 3 and caspase 8. […] Additionally, 36 hours (FIGS. 4F and 4G) or 48 hours post-transfection (FIGS. 4D and 4E), cells were pulsed with […] bromodeoxyuridine for 60 minutes, fixed in 70% cold ethanol, and stored at −20° C. for at least 3 hours. […] Fluorescence was measured using Gallios Flow Cytometer (Beckman Coulter, Life Sciences, Pasadena, Calif., USA) and analyzed using Kaluza software (Beckman Coulter). Viable cells were considered as AV^−/PI^− cells.

caspase 8 = test: Activated caspase 8 by flow cytometry in CRC cells; assay type: cell-based, human; conditions: oligonucleotide 100 nM 36 hours, FIGS. 4A, 4B
Protocol: as §1

RIPK3 = test: Western blot of phospho-RIPK3 after FMRP antisense treatment; assay type: cell-based; conditions: human CRC cell lines, 24 hours, FIGS. 6A, 6C
Protocol: (§2) To confirm the association of FMRP with components of the necroptosis pathway, cells were left untreated or transfected with either FMRP antisense oligonucleotide (final concentration 0.5 nM and 100 nM) or FMRP sense oligonucleotide (final concentration 100 nM); incubated with a pMLKL inhibitor (necrosulfonamide, NSA; final concentration 1 μM)(Calbiochem); or a pRIPK1 inhibitor (necrostatinl, NEC1; final concentration 10 μM)(Cayman Chemical, Ann Arbor, Mich. USA). After 24 hours cells were collected and analyzed by Western blot, or stained with FITC-Annexin V and PI for flow cytometry analysis, as previously described in Examples 1-3.

MLKL = test: Western blot of phospho-MLKL after FMRP antisense treatment; assay type: cell-based; conditions: human CRC cell lines, 24 hours, FIGS. 6A, 6D
Protocol: as §2

HCT-116 cells = test: Invasion across Matrigel-coated Transwell inserts; assay type: cell-based, human; conditions: HCT-116, AS 0.5 nM, 48 hours, vs untreated or sense, FIGS. 8C, 8D
Protocol: To investigate the role of FMRP in tumor cell migration and invasion, HCT-116 cells were seeded in each side of an Ibidi® culture insert and grown to confluence then left untreated (U) or transfected with sense FMRP oligonucleotide (S) (final concentration 0.5 nM) or antisense FMRP oligonucleotide (AS) (final concentration 0.5 nM). Additionally, HCT-116 cells were seeded in Transwell® inserts precoated with Matrigel®, and either left untreated (U) or transfected with sense oligonucleotide (S) (final concentration 100 nM) or antisense FMRP oligonucleotide (AS) (final concentration 0.5 nM) for 48 hours.

E-cadherin = test: Western blot of E-cadherin in HCT-116 cells; assay type: cell-based, human; conditions: HCT-116, AS 0.5 nM, 48 hours, vs untreated or sense, FIGS. 8E, 8F
Protocol: (§3) To determine whether FMRP regulates levels of E-cadherin and/or β-catenin, key proteins associated with cellular adhesion, cytoskeletal remodeling, and inhibition of tumor migration and invasion, cells were left untreated (U), or transfected with either FMRP sense (S) oligonucleotide (final concentration 0.5 nM) or FMRP antisense (AS) oligonucleotide (final concentration 0.5 nM) for 48 hours.
(§4) Recent studies have described a novel tumor suppressor function of MCC in the regulation of E-cadherin/β-catenin complex-mediated cell-cell adhesion in colorectal cells. To investigate whether MCC mediates the observed increase of E-cadherin and β-catenin expression in HCT-116 cells transfected with antisense FMRP oligonucleotide (e.g., FIGS. 8E-8G), cells were left untreated (U) or transfected with sense FMRP oligonucleotide (final concentration 0.5 nM), or antisense FMRP oligonucleotide (final concentration 0.5 nM), and/or control siRNA (siRNA Ctrl) or siRNA specific for MCC (siRNA MCC) for 48 hours.

β-catenin = test: Western blot of β-catenin in HCT-116 cells; assay type: cell-based, human; conditions: HCT-116, AS 0.5 nM, 48 hours, vs untreated or sense, FIGS. 8E, 8G
Protocol: as §3, §4

With “5′-TCCACCACCAGCTCCTCCAT-3′ (all phosphorothioate, sugars by position and methylation of C not given here) [FMRP antisense oligonucleotide, Phosphorothioate single-stranded antisense oligonucleotides complementary to human FMRP]” the “number of AnnexinV+ or AnnexinV+ PI+ cells” value (DLD-1 cells) was “increased number of AnnexinV^+ or AnnexinV^+ Pt cells”, the “number of AnnexinV+ or AnnexinV+ PI+ cells” value (HCEC-1ct cells) was “neither HCT-116 cells nor HCRC-1ct cells treated with FMRP antisense oligonucleotide exhibited an increased number” and the “percentage of activated caspase 3-positive cells” value (caspase 3) was “did not alter”. For the same substance, the “percentage of activated caspase 8-positive cells” value (caspase 8) was “did not alter”, the “phosphorylation of RIPK3” value (RIPK3) was “increased phosphorylation” and the “phosphorylation of MLKL” value (MLKL) was “increased phosphorylation”. The “number of cells migrating across Matrigel-coated Transwell insert” value (HCT-116 cells) was “significantly reduced migration”, the E-cadherin protein expression (E-cadherin) was “significantly increased” and the β-catenin protein expression (β-catenin) was “significantly increased”.
